For 27 molecules, melting point results are on record in US8183262B2, “Pyridine derivatives as mGluR2 antagonists” (Hoffmann-La Roche Inc., priority 2007, dated 2012).

The molecule `Cc1cc(-c2ccc(C(F)(F)F)c(C)c2)nc(-c2ccnc(-c3ccc(N)nc3)c2)n1` [Example 131, 4-[4-Methyl-6-(3-methyl-4-trifluoromethyl-phenyl)-pyrimidin-2-yl]-[2,3′]bipyridinyl-6′-ylamine] displayed a melting point of 188 °C.
In the case of `NS(=O)(=O)c1cccc(-c2cc(-c3nc(-c4ccc(C(F)(F)F)c(OCC(F)(F)F)c4)cc(C(F)(F)F)n3)ccn2)c1` [Example 448, 3-(4-{4-[3-(2,2,2-Trifluoro-ethoxy)-4-trifluoromethyl-phenyl]-6-trifluoromethyl-pyrimidin-2-yl}-pyridin-2-yl)-benzenesulfonamide], the melting point worked out at 211 °C.
The molecule `Nc1ccc(-c2nc(-c3nc(-c4ccc(C(F)(F)F)cc4)cc(C(F)(F)F)n3)no2)cn1` [Example 21, 5-{3-[4-Trifluoromethyl-6-(4-trifluoromethyl-phenyl)-pyrimidin-2-yl]-[1,2,4]oxadiazol-5-yl}-pyridin-2-ylamine] had a melting point of 205 °C.
In the case of `CNS(=O)(=O)c1cccc(-c2cccc(-c3cc(-c4ccc(C(F)(F)F)cc4)cc(C)n3)n2)c1` [Example 422, N-Methyl-3-[6′-methyl-4′-(4-trifluoromethyl-phenyl)-[2,2′]bipyridinyl-6-yl]-benzenesulfonamide] it was 176 °C; in that of `Cc1cc(-c2ccc(C(F)(F)F)cc2)cc(-c2ccnc(-c3cccc(S(=O)(=O)NC(C)(C)CO)c3)c2)n1` [Example 349, N-(2-Hydroxy-1,1-dimethyl-ethyl)-3-[6-methyl-4-(4-trifluoromethyl-phenyl)-[2,4′]bipyridinyl-2′-yl]-benzenesulfonamide], 92 °C; in that of `Cc1cc(-c2ccc(Cl)c(Cl)c2)nc(-c2cccc(-c3ccc(N)nc3)c2)n1` [Example 147, 5-{3-[4-(3,4-Dichloro-phenyl)-6-methyl-pyrimidin-2-yl]-phenyl}-pyridin-2-ylamine], 170.5 °C.
In the case of `Cc1cc(-c2ccc(C(F)(F)F)cc2)cc(-c2cccc(-c3cccc(N)c3)n2)n1` [Example 327, 3-[6′-Methyl-4′-(4-trifluoromethyl-phenyl)-[2,2′]bipyridinyl-6-yl]-phenylamine], the melting point is 167 °C.
The molecule `Nc1ncc(-c2cc(-c3cc(-c4ccc(C(F)(F)F)cc4)cc(C4CC4)n3)ccn2)cn1` [Example 78, 5-[6-Cyclopropyl-4-(4-trifluoromethyl-phenyl)-[2,4′]bipyridinyl-2′-yl]-pyrimidin-2-ylamine] showed a melting point of 242 to 245 °C.
In the case of `NS(=O)(=O)c1ccc(-c2nc(-c3nc(-c4ccc(C(F)(F)F)cc4)cc(C(F)(F)F)n3)no2)s1` [Example 23, 5-{3-[4-Trifluoromethyl-6-(4-trifluoromethyl-phenyl)-pyrimidin-2-yl]-[1,2,4]oxadiazol-5-yl}-thiophene-2-sulfonic acid amide] it was 258.5 °C; in that of `Cc1cc(-c2ccc(Cl)c(C)c2)nc(-n2cnc(-c3ccc(S(N)(=O)=O)s3)c2)n1` [Example 225, 5-{1-[4-(4-Chloro-3-methyl-phenyl)-6-methyl-pyrimidin-2-yl]-1H-imidazol-4-yl}-thiophene-2-sulfonic acid amide], 267 °C (dec.); in that of `Cc1cc(-c2ccc(C(F)(F)F)cc2)cc(-c2ccnc(-c3cccc(N)c3)n2)n1` [Example 326, 3-{4-[6-Methyl-4-(4-trifluoromethyl-phenyl)-pyridin-2-yl]-pyrimidin-2-yl}-phenylamine], 167 °C.
On to `Cc1cc(-c2ccc(C(F)(F)F)cc2)cc(-c2cccc(-c3cccc(NS(=O)(=O)N4CCOCC4)c3)n2)n1` [Example 351, Morpholine-4-sulfonic acid {3-[6′-methyl-4′-(4-trifluoromethyl-phenyl)-[2,2′]bipyridinyl-6-yl]-phenyl}-amide], for which the melting point was found to be 191 °C.
`Cc1cc(-c2ccc(Cl)c(Cl)c2)nc(-n2cnc(-c3cccc(S(N)(=O)=O)c3)c2)n1` [Example 198, 3-{1-[4-(3,4-Dichloro-phenyl)-6-methyl-pyrimidin-2-yl]-1H-imidazol-4-yl}-benzenesulfonamide] had a melting point of 210 °C.
On to `NS(=O)(=O)c1cccc(-c2cc(-c3nc(-c4ccc(C(F)(F)F)cc4F)cc(C(F)(F)F)n3)ccn2)c1` [Example 450, 3-{4-[4-(2-Fluoro-4-trifluoromethyl-phenyl)-6-trifluoromethyl-pyrimidin-2-yl]-pyridin-2-yl}-benzenesulfonamide], for which the melting point came to 210 °C.
`Cc1cc(-c2ccc(C(F)(F)F)cc2)nc(-c2ccnc(-c3cccc(S(N)(=O)=O)c3)c2)c1` [Example 309, 3-[4-Methyl-6-(4-trifluoromethyl-phenyl)-[2,4′]bipyridinyl-2′-yl]-benzenesulfonamide] returned a melting point of 238 °C.
In turn, `NS(=O)(=O)c1cccc(-c2cn(-c3nc(-c4ccc(F)c(F)c4)cc(C(F)(F)F)n3)cn2)c1` [Example 396, 3-{1-[4-(3,4-Difluoro-phenyl)-6-trifluoromethyl-pyrimidin-2-yl]-1H-imidazol-4-yl}-benzenesulfonamide] gave a melting point of 241.5 °C.
For `Nc1ccc(-c2cccc(-c3nc(-c4cccc(C(F)(F)F)c4)cc(C(F)(F)F)n3)c2)cn1` [Example 140, 5-{3-[4-Trifluoromethyl-6-(3-trifluoromethyl-phenyl)-pyrimidin-2-yl]-phenyl}-pyridin-2-ylamine] the value was 162 °C; for `Cc1cc(-c2ccc(Cl)c(C)c2)nc(-n2cnc(-c3cccc(S(N)(=O)=O)c3)c2)n1` [Example 224, 3-{1-[4-(4-Chloro-3-methyl-phenyl)-6-methyl-pyrimidin-2-yl]-1H-imidazol-4-yl}-benzenesulfonamide], 219 °C (dec.); for `NS(=O)(=O)c1cccc(-c2cc(-c3nc(-c4ccc(F)cc4)cc(C(F)(F)F)n3)ccn2)c1` [Example 398, 3-{4-[4-(4-Fluoro-phenyl)-6-trifluoromethyl-pyrimidin-2-yl]-pyridin-2-yl}-benzenesulfonamide], 239.5 °C.
Turning to `Cc1cc(-c2ccc(C(F)(F)F)cc2)cc(-c2cccc(-c3cccc(S(=O)(=O)NC4CCOCC4)c3)n2)n1` [Example 444, 3-[6′-Methyl-4′-(4-trifluoromethyl-phenyl)-[2,2′]bipyridinyl-6-yl]-N-(tetrahydro-pyran-4-yl)-benzenesulfonamide], the melting point is 163 °C (dec.).
With `Cc1cc(-c2ccc(C(F)(F)F)cc2)nc(-c2ccnc(-c3ccc(N)nc3)c2)n1` [Example 113, 4-[4-Methyl-6-(4-trifluoromethyl-phenyl)-pyrimidin-2-yl]-[2,3′]bipyridinyl-6′-ylamine], the melting point came to 232 °C.
As to `Cc1cc(-c2ccc(C(F)(F)F)cc2)nc(-n2cnc(-c3ccc(S(N)(=O)=O)cc3)c2)n1` [Example 183, 4-{1-[4-Methyl-6-(4-trifluoromethyl-phenyl)-pyrimidin-2-yl]-1H-imidazol-4-yl}-benzenesulfonamide], the melting point is 323 °C.
As to `Cc1cc(-c2ccc(C(F)(F)F)cc2)cc(-c2cncc(-c3ccc(N)nc3)c2)n1` [Example 67, 6-Methyl-4-(4-trifluoromethyl-phenyl)-[2,3′;5′,3″]terpyridin-6″-ylamine], the melting point lay within 161 to 177 °C.
In the case of `CC(C)(C)NS(=O)(=O)c1cnc(-c2cn(-c3cc(-c4ccc(C(F)(F)F)cc4)cc(C(F)(F)F)n3)cn2)s1` [Example 302, 2-{1-[6-Trifluoromethyl-4-(4-trifluoromethyl-phenyl)-pyridin-2-yl]-1H-imidazol-4-yl}-thiazole-5-sulfonic acid tert-butylamide], the melting point is 252 °C.
`NS(=O)(=O)c1cccc(-c2cn(-c3nc(-c4ccc(Cl)c(Cl)c4)cc(C(F)(F)F)n3)cn2)c1` [Example 215, 3-{1-[4-(3,4-Dichloro-phenyl)-6-trifluoromethyl-pyrimidin-2-yl]-1H-imidazol-4-yl}-benzenesulfonamide] yielded a melting point of 239 °C.
`Nc1ccc(-c2cn(-c3nc(-c4ccc(C(F)(F)F)cc4)cc(C(F)(F)F)n3)cn2)cn1` [Example 13, 5-{1-[4-Trifluoromethyl-6-(4-trifluoromethyl-phenyl)-pyrimidin-2-yl]-1H-imidazol-4-yl}-pyridin-2-ylamine] gave a melting point of 286 °C.
Turning to `Cc1cc(-c2ccc(C(F)(F)F)cc2)cc(-c2nc(-c3cccc(S(=O)(=O)NC(C)(C)C)c3)cs2)n1` [Example 263, N-tert-Butyl-3-{2-[6-methyl-4-(4-trifluoromethyl-phenyl)-pyridin-2-yl]-thiazol-4-yl}-benzenesulfonamide], the melting point is 196 °C.

For orientation: melting point means the temperature, or range, at which the solid turns liquid.
